Assay results published in paper PMC9521027 (ACS Omega, 2022).
Substitutions are numbered along the chain they refer to.

Key:
URAT1 K393R mutant = target: T1, URAT1 K393R mutant (Homo sapiens, UniProt Q96S37, K393R); test: 14C-uric acid uptake assay in transfected HEK293 cells; format: cell-based; settings: K393R, HEK293 cells
T1 sequence (Q96S37 1-553 K393R): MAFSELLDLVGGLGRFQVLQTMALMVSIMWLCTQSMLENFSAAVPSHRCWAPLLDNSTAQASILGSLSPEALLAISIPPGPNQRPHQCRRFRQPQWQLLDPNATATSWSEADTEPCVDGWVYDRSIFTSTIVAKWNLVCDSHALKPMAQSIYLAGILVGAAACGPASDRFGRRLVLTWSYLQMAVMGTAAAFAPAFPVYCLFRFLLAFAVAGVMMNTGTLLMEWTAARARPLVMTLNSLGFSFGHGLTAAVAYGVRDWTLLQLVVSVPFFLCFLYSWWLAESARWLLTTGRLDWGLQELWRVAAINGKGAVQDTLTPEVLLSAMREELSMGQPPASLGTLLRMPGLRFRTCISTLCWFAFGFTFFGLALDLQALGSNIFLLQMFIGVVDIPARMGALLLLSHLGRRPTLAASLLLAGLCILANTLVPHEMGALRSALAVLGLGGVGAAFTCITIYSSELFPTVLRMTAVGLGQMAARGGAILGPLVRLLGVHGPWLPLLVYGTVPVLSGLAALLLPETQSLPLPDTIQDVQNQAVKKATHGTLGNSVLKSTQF

URAT1 K393H mutant = target: T2, URAT1 K393H mutant (Homo sapiens, UniProt Q96S37, K393H); test: Competitive inhibition test of unlabeled uric acid on 14C-uric acid uptake; format: cell-based
T2 sequence (Q96S37 1-553 K393H): T1 sequence (Q96S37 1-553 K393R) with R393H

`O=c1[nH]c(=O)c2[nH]c(=O)[nH]c2[nH]1` [uric acid] was tested, and the “14C-uric acid transport compared with WT” value (URAT1 K393R mutant) was “no reduction” and the IC50 (URAT1 K393H mutant) was 121 ± 5.98 µM.
